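How tested: cells in 96-well plates exposed to compound for 48 hours at five concentrations. GI50: concentration for 50% inhibition of growth.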 Activity calls are given as the source filed them. Cut-off read from the data, not from the text of the source: active = GI50 up to about 1.1 µM and inactive = higher.
Columns and labels:
Experiment in all cases: NCI anticancer screen, dose series, 48 h
786-0 = test system: 786-0
A498 = test system: A498
A549 = test system: A549
ACHN = test system: ACHN
BT-549 = test system: BT-549
CAKI-1 = test system: CAKI-1
CCRF-CEM = test system: CCRF-CEM
COLO 205 = test system: COLO 205
DU-145 = test system: DU-145
EKVX = test system: EKVX
HCC 2998 = test system: HCC 2998
HCT-116 = test system: HCT-116
HCT-15 = test system: HCT-15
HL-60 = test system: HL-60
HOP-62 = test system: HOP-62
HOP-92 = test system: HOP-92
HT-29 = test system: HT-29
Hs-578T = test system: Hs-578T
IGROV-1 = test system: IGROV-1
K562 = test system: K562
KM12 = test system: KM12
LOX IMVI = test system: LOX IMVI
M14 = test system: M14
MCF7 = test system: MCF7
MDA-MB-231 = test system: MDA-MB-231
MDA-MB-435 = test system: MDA-MB-435
MOLT-4 = test system: MOLT-4
Malme-3M = test system: Malme-3M
NCI-H226 = test system: NCI-H226
NCI-H23 = test system: NCI-H23
NCI-H460 = test system: NCI-H460
NCI-H522 = test system: NCI-H522
NCI/ADR-RES = test system: NCI/ADR-RES
OVCAR-3 = test system: OVCAR-3
OVCAR-4 = test system: OVCAR-4
OVCAR-5 = test system: OVCAR-5
OVCAR-8 = test system: OVCAR-8
PC-3 = test system: PC-3
RPMI-8226 = test system: RPMI-8226
RXF 393 = test system: RXF 393
SF-268 = test system: SF-268
SF-295 = test system: SF-295
SF-539 = test system: SF-539
SK-MEL-28 = test system: SK-MEL-28
SK-MEL-2 = test system: SK-MEL-2
SK-MEL-5 = test system: SK-MEL-5
SN12C = test system: SN12C
SNB-19 = test system: SNB-19
SNB-75 = test system: SNB-75
SR = test system: SR
SW-620 = test system: SW-620
T47D = test system: T47D
TK-10 = test system: TK-10
U-251 = test system: U-251
UACC-257 = test system: UACC-257
UACC-62 = test system: UACC-62
UO-31 = test system: UO-31
MDA-N = test system: MDA-N

O=C(c1ccccc1)c1c(C(F)(F)F)[n+]([O-])c2ccccc2[n+]1[O-]
GI50 (786-0): 1920 nM (inactive)
GI50 (A498): 2190 nM (inactive)
GI50 (A549): 634 nM (active)
GI50 (ACHN): 1360 nM (inactive)
GI50 (BT-549): 476 nM (active)
GI50 (CAKI-1): 446 nM (active)
GI50 (CCRF-CEM): 495 nM (active)
GI50 (COLO 205): 1180 nM (inactive)
GI50 (DU-145): 1730 nM (inactive)
GI50 (EKVX): 2170 nM (inactive)
GI50 (HCC 2998): 1250 nM (inactive)
GI50 (HCT-116): 977 nM (active)
GI50 (HCT-15): 785 nM
GI50 (HL-60): 205 nM (active)
GI50 (HOP-62): 1080 nM (active)
GI50 (HOP-92): 207 nM (active)
GI50 (HT-29): 687 nM (active)
GI50 (Hs-578T): 3150 nM (inactive)
GI50 (IGROV-1): 188 nM (active)
GI50 (K562): 209 nM (active)
GI50 (KM12): 451 nM (active)
GI50 (LOX IMVI): 291 nM (active)
GI50 (M14): 2580 nM (inactive)
GI50 (MCF7): 652 nM (active)
GI50 (MDA-MB-231): 1420 nM (inactive)
GI50 (MDA-MB-435): 798 nM (active)
GI50 (MOLT-4): 129 nM (active)
GI50 (Malme-3M): 2000 nM (inactive)
GI50 (NCI-H226): 1510 nM (inactive)
GI50 (NCI-H23): 1430 nM (inactive)
GI50 (NCI-H460): 855 nM (active)
GI50 (NCI-H522): 459 nM (active)
GI50 (NCI/ADR-RES): 469 nM (active)
GI50 (OVCAR-3): 343 nM (active)
GI50 (OVCAR-4): 302 nM (active)
GI50 (OVCAR-5): 1310 nM (inactive)
GI50 (OVCAR-8): 543 nM (active)
GI50 (PC-3): 290 nM (active)
GI50 (RPMI-8226): 237 nM (active)
GI50 (RXF 393): 1460 nM (inactive)
GI50 (SF-268): 995 nM (active)
GI50 (SF-295): 1360 nM (inactive)
GI50 (SF-539): 1830 nM (inactive)
GI50 (SK-MEL-28): 1910 nM (inactive)
GI50 (SK-MEL-2): 1500 nM (inactive)
GI50 (SK-MEL-5): 1870 nM (inactive)
GI50 (SN12C): 951 nM (active)
GI50 (SNB-19): 1440 nM (inactive)
GI50 (SNB-75): 1260 nM (inactive)
GI50 (SR): 73.8 nM (active)
GI50 (SW-620): 1480 nM (inactive)
GI50 (T47D): 396 nM (active)
GI50 (TK-10): 1640 nM (inactive)
GI50 (U-251): 1160 nM (inactive)
GI50 (UACC-257): 1840 nM (inactive)
GI50 (UACC-62): 1680 nM (inactive)
GI50 (UO-31): 879 nM (active)

O=C(/N=N/c1cccc(Cl)c1)NNc1cccc(Cl)c1
GI50 (786-0): 15100 nM (inactive)
GI50 (A498): 17700 nM (inactive)
GI50 (A549): 24500 nM (inactive)
GI50 (ACHN): 9250 nM (inactive)
GI50 (BT-549): > 10000 nM (inactive)
GI50 (CAKI-1): 18100 nM (inactive)
GI50 (CCRF-CEM): 18200 nM (inactive)
GI50 (DU-145): 17500 nM (inactive)
GI50 (HCC 2998): 14700 nM (inactive)
GI50 (HCT-116): 8220 nM (inactive)
GI50 (HCT-15): 17600 nM
GI50 (HL-60): 16700 nM (inactive)
GI50 (HOP-62): 5300 nM (inactive)
GI50 (HT-29): 22900 nM (inactive)
GI50 (IGROV-1): 17500 nM (inactive)
GI50 (K562): 10600 nM (inactive)
GI50 (LOX IMVI): 12900 nM (inactive)
GI50 (M14): 14400 nM (inactive)
GI50 (MDA-MB-231): 23200 nM (inactive)
GI50 (MDA-MB-435): 11500 nM (inactive)
GI50 (MDA-N): 13100 nM (inactive)
GI50 (MOLT-4): 10900 nM (inactive)
GI50 (Malme-3M): 16700 nM (inactive)
GI50 (NCI-H226): 23900 nM (inactive)
GI50 (NCI-H23): 26200 nM (inactive)
GI50 (NCI-H460): 15500 nM (inactive)
GI50 (NCI-H522): 21900 nM (inactive)
GI50 (OVCAR-3): 15000 nM (inactive)
GI50 (OVCAR-4): 10300 nM (inactive)
GI50 (OVCAR-5): 15800 nM (inactive)
GI50 (OVCAR-8): 17300 nM (inactive)
GI50 (PC-3): 8970 nM (inactive)
GI50 (RPMI-8226): 8360 nM (inactive)
GI50 (SF-268): 24700 nM (inactive)
GI50 (SK-MEL-28): 20100 nM (inactive)
GI50 (SK-MEL-2): 11500 nM (inactive)
GI50 (SK-MEL-5): 17900 nM (inactive)
GI50 (SN12C): 11700 nM (inactive)
GI50 (SNB-19): 20800 nM (inactive)
GI50 (SNB-75): 28500 nM (inactive)
GI50 (SR): 13800 nM (inactive)
GI50 (SW-620): 16200 nM (inactive)
GI50 (T47D): 10800 nM (inactive)
GI50 (TK-10): 25100 nM (inactive)
GI50 (U-251): 18700 nM (inactive)
GI50 (UACC-257): 19100 nM (inactive)
GI50 (UACC-62): 9250 nM (inactive)
GI50 (UO-31): 8490 nM (inactive)

From ChEMBL document CHEMBL1201862, “PubChem BioAssay data set” (2004)
